In US20150119399A1, “BETA-CELL REPLICATION PROMOTING COMPOUNDS AND METHODS OF THEIR USE” (President and Fellows of Harvard College, priority 2012, published 2015):
Entries after “also recorded” stand apart in the source; their conditions may differ. Where two headings read alike, the source gives them in different places.

Key:
beta-cells = experiment: beta-cell replication in dissociated rat islet cells (PDX-1/ki-67 imaging); assay type: cell-based; conditions: compound for 48 hours, relative to vehicle/DMSO control
Experimental: (§1) Rat islets were isolated and plated as previously described. In brief, rat islets were disassociated using 0.25% trypsin to obtain single cell suspension with occasional clusters of 2-3 cells. These cells were then plated in a 96-well format at a density of 80 k cells/well. The wells were pre-treated with conditioned media produced by the rat bladder carcinoma cell line 804G. After 48-hours, the cells were treated with compound at the indicated concentration or vehicle alone for 48 hours. The cells were then fixed and stained as previously described for the beta-cell marker PDX-1 and the replication marker ki-67. The beta-cell replication rate (the percentage of PDX-1^+ Cells that co-expressed ki-67) was quantified via automated imaging acquisition and analysis using a Cellomic ArrayScan. Each experimental was performed in replicas of four. p-values indicate a 2-tailed T-Test.
(§2) To quantify beta-cell replication rate, cells were identified as beta-cells if the contained both nuclear PDX-1 expression and cytoplasmic insulin staining. Replicating beta-cells were identified by the co-staining for ki-67. Alpha-cell replication was determined by determining the fraction of alpha-cells that co-expressed ki67. An alpha-cell was defined by the presence of cytoplasmic glucagon staining and the absence of nuclear PDX-1 staining. The fraction of dividing alpha-cells was determined by the proportion of alpha cells that co-expressed ki-67.

wild-type mice [1] = experiment: plasma GLP-1 levels in vivo; conditions: 30 minutes after treatment, 0.3 mg/kg Tadalafil, 0.25 mg/kg Dipyridamole, 0.45 mg/kg Vardenafil
[2] = tested on: diet-induced obesity (DIO) mice; experiment: glucose tolerance in diet-induced obesity (DIO) mice; assay type: in vivo; conditions: diet-induced obesity (DIO) mouse model of human diabetes
wild-type mice [3] = experiment: glucose tolerance in wild-type mice; assay type: in vivo, mouse
[4] = plasma insulin levels in vivo after intraperitoneal glucose; conditions: 30 minutes after treatment and intraperitoneal (IP) delivery of glucose, compared to DMSO
isolated rat islets = experiment: in vitro islet insulin secretion assay, rat islets; conditions: for islet insulin secretion: isolated rat islets
GLP-1R signaling = experiment: glucose tolerance via GLP-1R signaling; conditions: FIGS. 15A-15C
alpha-cells = experiment: alpha-cell replication in dissociated rat islet cells (glucagon/ki-67 imaging); assay type: cell-based; conditions: compound for 48 hours
Experimental: as §1, §2

diabetic DB mice = experiment: glucose tolerance in diabetic DB mice; assay type: in vivo, mouse; conditions: for glucose tolerance: compound by itself
recombinant PDE5 = recombinant PDE5 (Homo sapiens, UniProt O76074); conditions: in vitro selectivity assay using recombinant PDE
Text: Rows list the PDE inhibitors. Columns list the recombinant human PDE enzymes.

[5] = tested on: primary intestinal crypt culture; experiment: endogenous GLP-1 secretion in primary intestinal crypt culture; conditions: compared to control
human islets = experiment: in vitro islet insulin secretion assay, human islets; assay type: cell-based
[6] = co-administered with DPP-4 inhibitor Sitagliptin, wild-type mice (FIG. 11), Tadalafil data not shown
[7] = wild-type mice, compound by itself
[8] = wild-type mice, in combination with Exendin-4

| Structure (SMILES) | beta-cell replication (percentage of PDX-1+ cells that co-expressed ki-67) (beta-cells) | plasma GLP-1 levels (wild-type mice [1]) | glucose tolerance / blood glucose levels (wild-type mice [3]; [6]) | glucose tolerance (wild-type mice [3]; [7]) | glucose tolerance / blood glucose levels (wild-type mice [3]; [8]) | islet insulin secretion (isolated rat islets) | glucose tolerance via GLP-1R signaling (GLP-1R signaling) | alpha-cell replication (fraction of alpha-cells that co-expressed ki67) (alpha-cells) | further results |
| --- | --- | --- | --- | --- | --- | --- | --- | --- | --- |
| CN1CC(=O)N2[C@H](c3ccc4c(c3)OCO4)c3[nH]c4ccccc4c3C[C@@H]2C1=O [Tadalafil, (6R-trans)-6-(1,3-benzodioxol-5-yl)-2,3,6,7,12,12a-hexahydro-2-methyl-pyrazino[1′,2′:1,6]pyrido[3,4-b]indole-1,4-dione] | did not increase beta-cell replication | significantly increase plasma GLP-1 levels | act in concert with Sitagliptin to improve glucose tolerance and lower blood glucose levels | improves glucose tolerance | acts additively with Exendin-4 to lower glucose levels | do not enhance islet insulin secretion; also recorded: Neither Tadalafil (FIG. 4A) nor Vardenafil (FIG. 4B) significantly enhanced insulin secretion | improve glucose tolerance via GLP-1R signaling |  | glucose tolerance [2]: improves glucose tolerance; plasma insulin levels [4]: increased plasma insulin levels; also recorded: significantly increase plasma insulin levels |
| COc1cc2c(cc1OC)-c1c/c(=N\c3c(C)cc(C)cc3C)n(C)c(=O)n1CC2 [Trequinsin] | enhanced beta-cell replication |  |  |  |  |  |  | enhanced alpha-cell replication |  |
| CN(C(=O)CCCOc1ccc2[nH]c(=O)ccc2c1)C1CCCCC1 [Cilostamide] | enhanced beta-cell replication |  |  |  |  |  |  | enhanced alpha-cell replication |  |
| OCCN(CCO)c1nc(N2CCCCC2)c2nc(N(CCO)CCO)nc(N3CCCCC3)c2n1 [Dipyridamole, 2,6-bis-(diethanolamino)-4,8-dipiperidino-(5,4-d)-pyrimidine] | enhanced beta-cell replication; also recorded: double replication effect | significantly increase plasma GLP-1 levels | acts in concert with dipeptidyl peptidase-4 (DPP-4) inhibitor Sitagliptin to improve glucose tolerance; also recorded: act in concert with Sitagliptin to improve glucose tolerance and lower blood glucose levels | enhances glucose tolerance | enhances glucose tolerance; also recorded: acts additively with Exendin-4 to lower blood glucose levels | significantly enhanced insulin secretion | improve glucose tolerance via GLP-1R signaling | does not; also recorded: did not | glucose tolerance (diabetic DB mice): enhances glucose tolerance; glucose tolerance (diabetic DB mice; listed as dipyridamole): improves glucose tolerance; glucose tolerance / blood glucose levels (diabetic DB mice; in combination with Exendin-4): enhances glucose tolerance; also recorded: acts additively with Exendin-4 to lower blood glucose levels; glucose tolerance / blood glucose levels (diabetic DB mice; in combination with Exendin-4, listed as dipyridamole): enhances glucose tolerance; beta-cell replication (percentage of PDX-1+ cells that co-expressed ki-67) (beta-cells; listed as Dioyridamole): enhanced beta-cell replication; inhibition of PDE5 (inhibitor class) (recombinant PDE5): effective inhibitor (the inhibitor exhibits at least 50% inhibition of enzymatic activity in an in vitro selectivity assay using a recombinant PDE); endogenous GLP-1 secretion [5]: at least about twice; glucose tolerance (wild-type mice [3]; wild-type mice, compound by itself, listed as dipyridamole): improves glucose tolerance; glucose tolerance / blood glucose levels (wild-type mice [3]; wild-type mice, in combination with Exendin-4, listed as dipyridamole): enhances glucose tolerance; glucose tolerance (wild-type mice [3]; wild-type mice, oral administration): improves glucose tolerance; islet insulin secretion (isolated rat islets; listed as dipyridamole): enhances insulin secretion; effect of Exendin-4 on glucose-stimulated insulin secretion (isolated rat islets; rat islets, in combination with Exendin-4): enhances the effect of Exendin-4 on glucose-stimulated insulin secretion; islet insulin secretion (human islets): significantly enhanced insulin secretion; effect of Exendin-4 on glucose-stimulated insulin secretion (human islets; in combination with Exendin-4): enhances the effect of Exendin-4 on glucose-stimulated insulin secretion; islet insulin secretion (human islets; listed as dipyridamole): enhances insulin secretion |
| COc1cc(-c2ccc(=O)[nH]n2)ccc1OC(F)F [Zardaverine, 6-[4-(Difluoromethoxy)-3-methoxyphenyl]-3(2H)-pyridazinone] | enhanced beta-cell replication |  |  |  |  |  |  | enhanced alpha-cell replication |  |
